System: PBMC (polyclonal gluten-specific T cells) of paediatric and adult CD patients
Assay: IFN-γ ELISpot of PBMC after 3 day oral wheat challenge (SFU, % of maximal peptide response, dominance scores, EC50; Examples 5-6)
Format: cell-based, human
Settings: for Cross-reactive T cell response: following wheat challenge
[1] = subject I (3-5yrs/6-10yrs part)
[2] = subject J (3-5yrs/6-10yrs part)
[3] = subject K (3-5yrs/6-10yrs part)
[4] = subject V (3-5yrs/6-10yrs part)
[5] = subject W (3-5yrs/6-10yrs part)
[6] = subject Y (3-5yrs/6-10yrs part)
[7] = subject five (3-5yrs/6-10yrs part)
[8] = subject seven (3-5yrs/6-10yrs part)
[9] = subject six (3-5yrs/6-10yrs part)
[10] = subject ten (3-5yrs/6-10yrs part)
[11] = subject two (3-5yrs/6-10yrs part)

Row | Sequence | Cross-reactive T cell response (subject A, 11-17yrs) [SFU] | Cross-reactive T cell response (subject D, 11-17yrs) [SFU] | Cross-reactive T cell response (subject E, 11-17yrs) [SFU] | Cross-reactive T cell response (subject F, 11-17yrs) [SFU] | Cross-reactive T cell response (subject G, 11-17yrs) [SFU] | Cross-reactive T cell response (subject H) [SFU] | Cross-reactive T cell response [1] [SFU] | Significant response as a percentage of maximal peptide SFU (subject J) | Cross-reactive T cell response [2] [SFU] | Cross-reactive T cell response [3] [SFU] | Cross-reactive T cell response (subject P, 11-17yrs) [SFU] | Significant response as a percentage of maximal peptide SFU (subject Q, 11-17yrs) | Cross-reactive T cell response (subject Q, 11-17yrs) [SFU] | Significant response as a percentage of maximal peptide SFU (subject T, 11-17yrs) | Cross-reactive T cell response (subject T, 11-17yrs) [SFU] | Cross-reactive T cell response (subject U, 11-17yrs) [SFU] | Cross-reactive T cell response [4] [SFU] | Cross-reactive T cell response [5] [SFU] | Cross-reactive T cell response [6] [SFU] | Cross-reactive T cell response [7] [SFU] | other results
1 | QLFPLPEQPFPQP | 2 | 2 | 2 | 2 | 0 | 0 | 1 | ′ (11-20% = ′) | 26 | 5 | 11 | ′ (11-20% = ′) | 13 | ′ (11-20% = ′) | 13 | 9 | 4 | 4 | 2 | 7 | Cross-reactive T cell response (subject nine, 11-17yrs): 1 SFU; Cross-reactive T cell response [8]: 1 SFU; Cross-reactive T cell response [9]: 0 SFU; Significant response as a percentage of maximal peptide SFU (subject ten): + (>70% = +); Cross-reactive T cell response [10]: 14 SFU; Cross-reactive T cell response [11]: 3 SFU
2 | QPEQPFPLQPEQPVP | 1 | 0 | 9 | 27 | 2 | 3 | 1 | (6-10% - ^) | 11 | 8 | 12 | ′′ (21-40% = ′′) | 20 | ′ (11-20% = ′) | 16 | 9 | 4 | 4 | 1 | 3 | Significant response as a percentage of maximal peptide SFU (subject F, 11-17yrs): ′ (11-20% = ′); Cross-reactive T cell response (subject nine, 11-17yrs): 0 SFU; Significant response as a percentage of maximal peptide SFU (subject seven): + (>70% = +); Cross-reactive T cell response [8]: 19 SFU; Cross-reactive T cell response [9]: 2 SFU; Cross-reactive T cell response [10]: 8 SFU; Cross-reactive T cell response [11]: 6 SFU
3 | QPFPQPEQELPLQ | 4 | 7 | 46 | 31 | 1 | 5 | 6 | ′′ (21-40% = ′′) | 57 | 13 | 17 | ′ (11-20% = ′) | 14 | ′′ (21-40% = ′′) | 36 | 12 | 7 | 0 | 0 | 33 | Significant response as a percentage of maximal peptide SFU (subject E, 11-17yrs): ′′ (21-40% = ′′); Significant response as a percentage of maximal peptide SFU (subject F, 11-17yrs): ′ (11-20% = ′); Significant response as a percentage of maximal peptide SFU (subject K): ′ (11-20% = ′); Significant response as a percentage of maximal peptide SFU (subject U, 11-17yrs): ′ (11-20% = ′); Cross-reactive T cell response (subject nine, 11-17yrs): 1 SFU; Cross-reactive T cell response [8]: 8 SFU; Cross-reactive T cell response [9]: 5 SFU; Significant response as a percentage of maximal peptide SFU (subject ten): + (>70% = +); Cross-reactive T cell response [10]: 15 SFU; Cross-reactive T cell response [11]: 9 SFU
4 | QPFPQPEQPFPLQ | 5 | 16 | 70 | 64 | 10 | 4 | 13 | ′′′ (41-70% = ′′′) | 88 | 29 | 21 | + (>70% = +) | 83 | + (>70% = +) | 94 | 18 | 22 | 8 | 9 | 45 | Significant response as a percentage of maximal peptide SFU (subject D, 11-17yrs): ′′′ (41-70% = ′′′); Significant response as a percentage of maximal peptide SFU (subject E, 11-17yrs): ′′ (21-40% = ′′); Significant response as a percentage of maximal peptide SFU (subject F, 11-17yrs): ′′ (21-40% = ′′); Significant response as a percentage of maximal peptide SFU (subject G, 11-17yrs): ′′′ (41-70% = ′′′); Significant response as a percentage of maximal peptide SFU (subject I): + (>70% = +); Significant response as a percentage of maximal peptide SFU (subject K): ′′′ (41-70% = ′′′); Significant response as a percentage of maximal peptide SFU (subject U, 11-17yrs): ′′ (21-40% = ′′); Significant response as a percentage of maximal peptide SFU (subject V): ′′′ (41-70% = ′′′); Significant response as a percentage of maximal peptide SFU (subject five): + (>70% = +); Cross-reactive T cell response (subject nine, 11-17yrs): 0 SFU; Cross-reactive T cell response [8]: 6 SFU; Significant response as a percentage of maximal peptide SFU (subject six): + (>70% = +); Cross-reactive T cell response [9]: 12 SFU; Significant response as a percentage of maximal peptide SFU (subject ten): + (>70% = +); Cross-reactive T cell response [10]: 13 SFU; Significant response as a percentage of maximal peptide SFU (subject two): + (>70% = +); Cross-reactive T cell response [11]: 65 SFU
5 | QPFPQPEQPFPQS | 4 | 15 | 46 | 35 | 5 | 4 | 2 | ′′ (21-40% = ′′) | 57 | 18 | 13 | ′′′ (41-70% = ′′′) | 55 | + (>70% = +) | 70 | 27 | 25 | 6 | 4 | 32 | Significant response as a percentage of maximal peptide SFU (subject D, 11-17yrs): ′′′ (41-70% = ′′′); Significant response as a percentage of maximal peptide SFU (subject E, 11-17yrs): ′′ (21-40% = ′′); Significant response as a percentage of maximal peptide SFU (subject F, 11-17yrs): ′ (11-20% = ′); Significant response as a percentage of maximal peptide SFU (subject K): ′′ (21-40% = ′′); Significant response as a percentage of maximal peptide SFU (subject U, 11-17yrs): ′′ (21-40% = ′′); Significant response as a percentage of maximal peptide SFU (subject V): + (>70% = +); Significant response as a percentage of maximal peptide SFU (subject five): ′′′ (41-70% = ′′′); Cross-reactive T cell response (subject nine, 11-17yrs): 1 SFU; Significant response as a percentage of maximal peptide SFU (subject seven): ′′′ (41-70% = ′′′); Cross-reactive T cell response [8]: 11 SFU; Cross-reactive T cell response [9]: 7 SFU; Significant response as a percentage of maximal peptide SFU (subject ten): + (>70% = +); Cross-reactive T cell response [10]: 12 SFU; Significant response as a percentage of maximal peptide SFU (subject two): ′′′ (41-70% = ′′′); Cross-reactive T cell response [11]: 44 SFU
